# Test results as given in ChEMBL document CHEMBL3098057, “(E)-Alkenes as replacements of amide bonds: development of novel and potent acyclic CGRP receptor antagonists” (Bioorg Med Chem Lett, 2014).
# pKi: −log10 of the molar value.
# Columns and labels:
# human MDR1 = assay: Efflux ratio of permeability from basolateral to apical side over apical to basolateral side in pig LLC-PK1 cells expressing human MDR1; format: ADME, cell-based, Sus scrofa
# [1] = Apparent passive permeability of the compound in presence of […]; format: physicochemical; conditions: not told
# [2] = target: Calcitonin-gene-related peptide receptor, CALCRL/RAMP1 (Homo sapiens, UniProt O60894+Q16602); assay: Displacement of [125I]-hCGRP from human CALCRL/RAMP1 expressed in HEK293 cell membranes
# Calcitonin-gene-related peptide receptor, CALCRL/RAMP1, sequence (O60894 whole entry): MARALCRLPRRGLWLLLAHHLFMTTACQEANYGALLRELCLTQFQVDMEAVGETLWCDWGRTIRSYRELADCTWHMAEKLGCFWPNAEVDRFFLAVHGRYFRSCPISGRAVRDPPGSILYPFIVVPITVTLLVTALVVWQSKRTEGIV
# Calcitonin-gene-related peptide receptor, CALCRL/RAMP1, sequence (Q16602 whole entry): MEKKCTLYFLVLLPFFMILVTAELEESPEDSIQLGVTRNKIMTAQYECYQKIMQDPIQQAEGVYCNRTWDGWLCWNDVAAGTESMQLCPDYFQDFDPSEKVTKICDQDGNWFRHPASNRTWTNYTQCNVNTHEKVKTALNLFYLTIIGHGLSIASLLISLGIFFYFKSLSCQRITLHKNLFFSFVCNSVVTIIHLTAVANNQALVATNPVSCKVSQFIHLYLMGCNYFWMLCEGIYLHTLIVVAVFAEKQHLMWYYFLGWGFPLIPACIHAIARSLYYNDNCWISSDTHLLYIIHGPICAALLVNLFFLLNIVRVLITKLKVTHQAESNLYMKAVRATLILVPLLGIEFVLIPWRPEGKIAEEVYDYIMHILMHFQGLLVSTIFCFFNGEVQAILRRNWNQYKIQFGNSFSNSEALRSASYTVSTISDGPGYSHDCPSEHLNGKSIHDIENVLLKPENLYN
# [3] = Clearance in rat at 2 mg/kg; format: ADME, organism-based; parameters: dose 2 mg/kg; conditions: in vivo
# [4] = Oral bioavailability in rat at 10 mg/kg; format: ADME, organism-based; conditions: in vivo
# [5] = Half life in rat at 2 mg/kg; format: ADME, organism-based; parameters: dose 2 mg/kg; conditions: in vivo
smiles,measurement,setting,value
C[C@H](c1cc(F)cc(F)c1)N(Cc1cnc2cc3c(cc2c1)C[C@@]1(C3)C(=O)Nc2ncccc21)C(=O)C(C)(C)C,efflux ratio,human MDR1,1.3
same,Papp,[1],20 ×10⁻⁶ cm/s
C[C@H](c1cc(F)cc(F)c1)N(C/C=C/c1ccc2c(c1)C[C@@]1(C2)C(=O)Nc2ncccc21)C(=O)[C@@H]1CCCN1C,efflux ratio,human MDR1,27
same,pKi,[2],8.47
same,Papp,[1],33 ×10⁻⁶ cm/s
C[C@H](c1ccccc1)N(C/C=C/c1ccc2c(c1)C[C@@]1(C2)C(=O)Nc2ncccc21)C(=O)C(C)(C)C,pKi,[2],9.46
CC(C)(C)C(=O)N(C/C=C/c1ccc2c(c1)C[C@@]1(C2)C(=O)Nc2ncccc21)[C@@H]1CCc2ccccc21,pKi,[2],9.70
CC(C)C(=O)N(C/C=C/c1ccc2c(c1)C[C@@]1(C2)C(=O)Nc2ncccc21)[C@H](C)c1cc(F)cc(F)c1,pKi,[2],8.90
C[C@H](c1cc(F)cc(F)c1)N(C/C=C/c1ccc2c(c1)C[C@@]1(C2)C(=O)Nc2ncccc21)C(=O)C1CCOCC1,efflux ratio,human MDR1,1.9
same,pKi,[2],10.05
same,Papp,[1],32 ×10⁻⁶ cm/s
Cc1cc(C(=O)N(C/C=C/c2ccc3c(c2)C[C@@]2(C3)C(=O)Nc3ncccc32)[C@H](C)c2cc(F)cc(F)c2)n(C)n1,efflux ratio,human MDR1,2
same,pKi,[2],9.35
same,Papp,[1],17 ×10⁻⁶ cm/s
C[C@H](c1cc(F)cc(F)c1)N(C/C=C/c1cnc2c(c1)C[C@@]1(C2)C(=O)Nc2ncccc21)C(=O)C(C)(C)C,efflux ratio,human MDR1,1.4
same,clearance,[3],23 mL/min/kg
same,bioavailability,[4],51%
same,pKi,[2],10.40
same,half-life,[5],11 h
same,Papp,[1],27 ×10⁻⁶ cm/s
C[C@H](c1ccccc1)N(C/C=C/c1cnc2c(c1)C[C@@]1(C2)C(=O)Nc2ncccc21)C(=O)C(C)(C)C,pKi,[2],9.66
CC(C)(C)C(=O)N(C/C=C/c1cnc2c(c1)C[C@@]1(C2)C(=O)Nc2ncccc21)[C@@H]1CCc2ccccc21,efflux ratio,human MDR1,3.1
same,pKi,[2],10.10
same,Papp,[1],24 ×10⁻⁶ cm/s
CC(C)(C)C(=O)N(C/C=C/c1cnc2c(c1)C[C@@]1(C2)C(=O)Nc2ncccc21)Cc1cc(F)cc(F)c1,efflux ratio,human MDR1,0.9
same,pKi,[2],9.03
same,Papp,[1],23 ×10⁻⁶ cm/s
CC(C)(C)C(=O)N(C/C=C/c1cnc2c(c1)C[C@@]1(C2)C(=O)Nc2ncccc21)C1CCCCCC1,efflux ratio,human MDR1,0.8
same,pKi,[2],9.05
same,Papp,[1],20 ×10⁻⁶ cm/s
Cc1ccc([C@@H](C)N(C/C=C/c2cnc3c(c2)C[C@@]2(C3)C(=O)Nc3ncccc32)C(=O)C(C)(C)C)cc1F,efflux ratio,human MDR1,1.1
same,Papp,[1],18 ×10⁻⁶ cm/s
C[C@H](c1ccc(Cl)cc1)N(C/C=C/c1cnc2c(c1)C[C@@]1(C2)C(=O)Nc2ncccc21)C(=O)C(C)(C)C,efflux ratio,human MDR1,1
same,pKi,[2],9.51
same,Papp,[1],17 ×10⁻⁶ cm/s
C[C@H](c1cc(F)cc(F)c1)N(C/C=C/c1cnc2c(c1)C[C@@]1(C2)C(=O)Nc2ncccc21)C(=O)C1(C(F)(F)F)CC1,efflux ratio,human MDR1,2
same,Papp,[1],21 ×10⁻⁶ cm/s
Cc1ccsc1C(=O)N(C/C=C/c1cnc2c(c1)C[C@@]1(C2)C(=O)Nc2ncccc21)[C@H](C)c1cc(F)cc(F)c1,efflux ratio,human MDR1,1.5
same,pKi,[2],9.89
same,Papp,[1],17 ×10⁻⁶ cm/s
C[C@H](c1cc(F)cc(F)c1)N(C/C=C/c1cnc2c(c1)C[C@@]1(C2)C(=O)Nc2ncccc21)C(=O)c1nccn1C,efflux ratio,human MDR1,19
same,pKi,[2],9.80
same,Papp,[1],28 ×10⁻⁶ cm/s
Cc1noc(C)c1C(=O)N(C/C=C/c1cnc2c(c1)C[C@@]1(C2)C(=O)Nc2ncccc21)[C@H](C)c1cc(F)cc(F)c1,efflux ratio,human MDR1,16
same,pKi,[2],8.62
same,Papp,[1],29 ×10⁻⁶ cm/s
CC(C)(C)C(=O)N(CC#Cc1ccc2c(c1)C[C@@]1(C2)C(=O)Nc2ncccc21)[C@@H]1CCc2ccccc21,pKi,[2],9.70
C[C@H](c1ccccc1)N(CC#Cc1ccc2c(c1)C[C@@]1(C2)C(=O)Nc2ncccc21)C(=O)C(C)(C)C,pKi,[2],9.09
CC(C)(C)C(=O)N(CC#Cc1cnc2c(c1)C[C@@]1(C2)C(=O)Nc2ncccc21)[C@@H]1CCc2ccccc21,efflux ratio,human MDR1,1.1
same,pKi,[2],10.30
same,Papp,[1],26 ×10⁻⁶ cm/s
C[C@H](c1ccccc1)N(CC#Cc1cnc2c(c1)C[C@@]1(C2)C(=O)Nc2ncccc21)C(=O)C(C)(C)C,efflux ratio,human MDR1,1.3
same,pKi,[2],9.89
same,Papp,[1],33 ×10⁻⁶ cm/s
CC(C)(C)C(=O)N(CCCc1ccc2c(c1)C[C@@]1(C2)C(=O)Nc2ncccc21)[C@@H]1CCc2ccccc21,pKi,[2],8.69
C[C@H](c1ccccc1)N(CCCc1ccc2c(c1)C[C@@]1(C2)C(=O)Nc2ncccc21)C(=O)C(C)(C)C,pKi,[2],8.12
C[C@H](c1cc(F)cc(F)c1)N(CCCc1cnc2c(c1)C[C@@]1(C2)C(=O)Nc2ncccc21)C(=O)C(C)(C)C,efflux ratio,human MDR1,3.1
same,pKi,[2],9.66
same,Papp,[1],26 ×10⁻⁶ cm/s
CC(C)(C)C(=O)N(CCCc1cnc2c(c1)C[C@@]1(C2)C(=O)Nc2ncccc21)[C@@H]1CCc2ccccc21,efflux ratio,human MDR1,2.6
same,pKi,[2],9.21
same,Papp,[1],33 ×10⁻⁶ cm/s
C[C@H](c1ccccc1)N(CCCc1cnc2c(c1)C[C@@]1(C2)C(=O)Nc2ncccc21)C(=O)C(C)(C)C,efflux ratio,human MDR1,3.2
same,pKi,[2],8.87
same,Papp,[1],39 ×10⁻⁶ cm/s
C[C@H](c1cc(F)cc(F)c1)N(CC(=O)Nc1ccc2c(c1)C[C@@]1(C2)C(=O)Nc2ncccc21)C(=O)C(C)(C)C,efflux ratio,human MDR1,3.2
same,clearance,[3],11 mL/min/kg
same,half-life,[5],1 h
same,Papp,[1],26 ×10⁻⁶ cm/s
C[C@H](c1cc(F)cc(F)c1)N(C/C=C/c1ccc2c(c1)C[C@@]1(C2)C(=O)Nc2ncccc21)C(=O)C(C)(C)C,pKi,[2],9.80
C[C@H](c1cc(F)cc(F)c1)N(CC(=O)Nc1ccc2c(c1)C[C@@]1(C2)C(=O)NC(=O)N1C)C(=O)C(C)(C)C,efflux ratio,human MDR1,8.8
same,Papp,[1],25 ×10⁻⁶ cm/s
